# Reference: patent US12083084B2, “Method for enhancing energy production and metabolism in cells” (REPLICON HEALTH OY, priority 2013, dated 2024)
# Several values for one entry are separate records, joined by “and”; a condition that tells them apart may be missing. Equal entries are not always repeated. Entries after “also recorded” stand apart in the source; their conditions may differ.
# How the values were obtained:
# [1] = First set of clinical in vivo experiments, fasting blood test (Example 2.1); parameters: species or system human; details: for Headache after stopping twice a day administration: subjects S1-S3 (N = 3), 20-48 hours after last administration
# Description: In the first set of experiments presented in Example 2.1 all the blood measurements were conducted next day after last administration of DGAcs. In the longer experiments doses (3-5 mg/kg) were typically taken once a day (preferably in the evening before going to bed). In shorter 1-4 day experiments doses were taken twice a day, in the morning and before going to bed. In all experiments in Example 2.2 the last DGAcs dose was double in size (some 8 mg/kg), and it was taken in the same morning as the collection of blood samples. Relatively high dose and short time to measurement was chosen in order to see clearer dose response in gene expression from peripheral leukocytes, and also from collected plasma samples.
# Eight (8) persons completed controlled clinical testing with standard 10-12 hour fasting diet (f) blood test (sample analytics by United Medix Laboratories, Finland). There were four different types of clinical tests: first a 3 week test with low dose of DGA (N=3), secondly one 11 day test with bigger dose (N=1), and finally a 4 day test with high dose (N=4) and with low dose of DGA (N=2). Subjects 1 and 4 (in table 3) did the first three week test and then some months later also the separate 4 day test.
# Daily doses varied from 3-4 mg/kg/day in 3 week test to 6 mg/kg twice a day in 4 day test. General rule in the studies was that the shorter the period the higher the dose. In three week clinical tests fasting blood standard lipid panel and other basic readings were measured at the beginning and at the end of the test period.
# In the 4 day tests very wide fasting blood panel consisting of 25 different metrics was measured (see table 3 below), and additionally for some participants full blood count to measure more precise effect on erythrocytes and hemoglobin was carried out.
# Unlike in hepatocytes study (Example 1) clinical experiments were conducted in a fasting diet situation. Challenges for obtaining meaningful health indications from DGAcs administration arises from the fact that the study persons (aged 41-73) were all healthy volunteers, i.e. the blood values were mostly at very good levels, and thus improvements from the control are hard to achieve. Nevertheless the results from clinical testing show clear signs on the efficacy of DGA in improving systemic redox state of especially the cardiovascular system and also clear indications of increased overall metabolic flux. Specific markers for functioning of liver, kidneys, pancreas and spleen show improvement in general (see Table 4).
# [2] = test system: primary human hepatocytes; test: Cellular ROS detection (DCFDA) in primary human hepatocytes; assay type: cell-based; details: for ROS production compared to 0 dose/control: donor four, High Medium, FIG. 5; for ROS compared to 0 dose/control (in words): moderate metabolic stress (1.5-2 h after change of medium)
# Description: Primary human hepatocytes were purchased from Celsis In Vitro Technologies (1450 South Rolling Road Baltimore, MD 21227, USA). […] According to the information provided by the Celsis, hepatocytes from each donor should have at least 70% viability and more than 5 million viable cells. The medium for the culture of hepatocytes was provided by Celsis. They were InVitroGRO CP (for plating) medium (Z99029) and InVitroGRO HI (for incubation) medium (Z99009). Antibiotics (Torpedo Antibiotics Mix, Z990007) were also from Celsis. The thaw, plating and culture of cells were carried out according to the instruction provided by the Celsis In Vitro Technologies.
# For the measurement of cell viability after treatment of test compound, CytoTox-One Homogeneous Membrane Integrity Assay kit (Promega, G7891) was used. The CytoTox-One Assay is a rapid fluorescent measure of the release of lactate dehydrogenase (LDH) from cells with a damaged membrane. The number of […] cells correlates to the fluorescence intensity determined by a fluorescence plate reader (Hidex Chameleon V multiplate reader, Hidex Oy, Turku, Finland) with excitation 544 nm and emission 590 nm. For the measurement of cellular reactive oxygen species (ROS), DCFDA Cellular ROS Detection Assay Kit from Abcam (ab113851) was used. Reactive oxygen species (ROS) assay kit (ab113851) uses the cell permeant reagent 2′,7′-dichlorofluorescein diacetate (DCFDA), a fluorogenic dye that measures hydroxyl, peroxyl and other ROS activity with the cell. The activity of ROS was measured by a fluorescence plate reader (Hidex) with excitation/emission wavelengths of 485 nm/535 nm.
# The culture of primary hepatocytes was carried out based on the instructions provided by Celsis. After thawing, the cells were suspended in InVitroGRO CP medium. Thereafter the viability of cells was determined using the Trypan Blue exclusion method. Then the concentration of cells was adjusted using InVitroGRO CP medium, so about 30000-35000 cells/100 μl/well can be seeded in collagen I coated 96 well plate (BD, 734-0248).
# After seeding, the cells were cultured overnight in the cell culture incubator (Sanyo MCO 18) at atmosphere of 95% air, 5% CO2 at 37° C. Thereafter, the culture medium for the cells was changed to InVitroGRO Hi (Hi Medium) containing test compound (D-glyceric acid calcium salt dehydrate) at the concentrations of 0, 0.2, 2 and 20 μg/ml (study 1, Table 1.1.1) and 0, 0.4, 2 and 10 μg/ml (study 2, Table 1.1.2).
# In study 3 also LGA and HPA were tested and compared to DGA (see FIGS. 11c and 11d) with same doses as in study 2.
# In studies 2-4 additional diet with 0.75 mM of palmitic acid (“fatty acid diet”) was added to Hi Medium. Hi Medium in itself contains ample amounts of glucose and fructose and other necessary ingredients for keeping viability of the cell culture at optimal level.
# After 24 h (in study 1) and 20 h (in studies 2-4) incubation medium was renewed. Second renewal of the incubation medium occurred at 48 h in study 1 and at 40 h in other studies. ROS and LDH were measured after 1.5-2 hours after last change of the medium, i.e. in a situation with moderate metabolic stress.
# The measurement of cellular reactive oxygen species (ROS) was carried out according to the instruction of Abcam (ab113851). At the end of treatment time point, culture medium was taken away for leaked LDH measurement and cells were washed with 100 μl/well PBS once. Thereafter 100 μl/well of DCDA mix was added and incubated for 45 min at 37° C. in the dark. Then cells were washed once with 1× buffer solution. The fluorescence signal was measured at an excitation wavelength of 485 nm and emission wavelength of 535 nm using the Hidex Chameleon V multiplate reader (Hidex Oy, Turku, Finland).
# For the LDH and ROS assays, individual values of each measurement were stored and average value of fluorescence signals of various repeats of each treatment at studied time point were calculated and compared. […]
# [3] = 4 day, 5-6 mg/kg twice a day, healthy lean subjects S1-S4, fasting blood, change from zero control
# [4] = 4 day, 5-6 mg/kg twice a day, healthy lean subjects S1-S4, fasting blood, change from zero control, listed as DGA calcium salt
# [5] = S4 (healthy person), after 4 day test, fasting blood
smiles,measurement,setting,value
"O=C(O)[C@H](O)CO [DGA, D-glyceric acid]","fS-Trigly, increases in blood triglycerides",[1]; 5 subjects,Observed 25-50% increases in blood triglycerides
same,Headache after stopping twice a day administration,[1]; 4 day test,some symptoms of headache after 20-48
same,"fS-Lactate dehydrogenase (LDH), average decline","[1]; healthy volunteers (N = 3), 4 day test",some 4%. (Subject 3
same,"fS-Na (Sodium), average decline","[1]; healthy volunteers (N = 4), 4 day test",~1.5%.
same,"fS-Urate (uric acid), average decline","[1]; healthy volunteers (N = 6), 4 day test",test; average decline some 6%.
same,"fS-Cholesterol, average decline",[1]; healthy volunteers (N = 8),(only some 3-5%).
same,"fS-Chol.-HDL, average decline","[1]; healthy volunteers (N = 8), all periods and doses",~6%.
same,Diuretic effects,[1]; non-acute dose,Sodium decline in most
same,"fS-Urea, average decline",[1]; non-acute dose,some 7-8%.
same,"CK, creatinine kinase, average reduction in values","[1]; non-acute dose, N = 4",On average 25% reduction in values (N = 4).
same,"Bilirubin conj., average reduction in values","[1]; non-acute dose, N = 6",On average 20% reduction in values. N = 6
same,"Bilirubin, average reduction in values","[1]; non-acute dose, N = 6",On average some 20% reduction in values.
same,"fS-Asat, average reduction in values","[1]; non-acute dose, N = 6",On average 15-20% reduction
same,"fS-Fe, average reduction in values","[1]; non-acute dose, N = 6",On average 15% reduction in values. N = 6
same,fS-Alat,"[1]; non-acute dose, N = 8, when values were higher in the recommended range","improvement was observed, when values"
same,ROS production compared to 0 dose/control,"[2]; 1.5 h after new medium (moderate metabolic stress), 1.4 μM",Significant efficacy
same,ROS production compared to 0 dose/control,"[2]; 1.5 h after new medium, 0.14 μM",no effect
same,ROS production compared to 0 dose/control,"[2]; 1.5 h after new medium, 14 μM (2 μg/ml)",Biggest ROS scavenging effect
same,decline of ROS compared to control,"[2]; donor one, Hi Medium+Palmitic acid, FIG. 11a",same decline
same,amount of ROSs decreased by,"[2]; primary human hepatocytes, metabolic stress situation",15-40%
same,ROS compared to 0 dose/control (in words),[2]; primary human hepatocytes,decreases ROS
same,"ROS scavenging in equimolar comparison against vitamin E, glutathione, vitamin C (and morin dehydrate)","[2]; study 4, donors alpha (FIG. 5) and (FIG. 6), 14 μM",superior or at least as good ROS scavenger; also recorded: superior antioxidant
"O.O.O=C([O-])[C@H](O)CO.O=C([O-])[C@H](O)CO.[Ca+2] [DGAcs, D-glyceric acid, calcium salt dehydrate]",Headache after stopping twice a day administration,[1]; 4 day test,slight headache
same,"HDL, 4 day change",[1]; [3],−5%
same,"LDL, 4 day change",[1]; [3],2%
same,"S-Afos, 4 day change",[1]; [3],−2%
same,"S-Alb, 4 day change",[1]; [3],−2%
same,"S-Amyl, 4 day change",[1]; [3],65%
same,"S-Bil, 4 day change",[1]; [3],−12.6% and −19%
same,"S-Bil-Kj, 4 day change",[1]; [3],−17%
same,"S-CK, 4 day change",[1]; [3],−22%
same,"S-Cal, 4 day change",[1]; [3],−2%
same,"S-GT, 4 day change",[1]; [3],11%
same,"S-K, 4 day change",[1]; [3],−2%
same,"S-LD (LDH), 4 day change",[1]; [3],−4%
same,"S-Mg, 4 day change",[1]; [3],−2%
same,"S-Na, 4 day change",[1]; [3],−1%
same,"S-Uraat, 4 day change",[1]; [3],−9.9% and −5%
same,"fS-Gluk, 4 day change",[1]; [3],2%
same,"fS-Kol, 4 day change",[1]; [3],−2%
same,"fS-Krea, 4 day change",[1]; [3],−4%
same,"fS-Pi, 4 day change",[1]; [3],18%
same,"fS-Transf, 4 day change",[1]; [3],10%
same,"fS-Transferr.satur., 4 day change",[1]; [3],−32%
same,"fS-Urea, 4 day change",[1]; [3],−7%
same,"HDL, 4 day change",[1]; [4],−4.5% and −3.3% and −9.1% and −5.9%
same,"S-Afos, 4 day change",[1]; [4],−2.1% and 0.0% and −5.8% and −6.3%
same,"S-Alb, 4 day change",[1]; [4],−2.2% and 0.0%
same,"S-Cal, 4 day change",[1]; [4],−1.7% and 0.0% and −2.2% and −2.5%
same,"S-LD (LDH), 4 day change",[1]; [4],−3.7% and −4.2% and −4.8%
same,"S-Mg, 4 day change",[1]; [4],−2.4% and 6.3% and −3.6% and 2.2%
same,"S-Na, 4 day change",[1]; [4],−1.4% and −2.1% and 0.7%
same,"S-Uraat, 4 day change",[1]; [4],−5.2% and −3.2% and −12.0% and −9.9%
same,"fS-Kol, 4 day change",[1]; [4],−1.6% and −5.7% and −6.4% and −3.2%
same,"fS-Krea, 4 day change",[1]; [4],−4.4% and −11.1% and −5.0% and −8.5%
same,AST/ALT (ratio) after treatment,"[1]; S1, earlier 4 day test (zero control 1.36)",1.05
same,AST/ALT,[1]; [5],1.10
same,S-Bil,[1]; [5],9.7
same,S-Uraat,[1]; [5],246
same,fS-Fe,[1]; [5],20.2
same,fS-Trigly,[1]; [5],1.73
same,average decline in blood urea,[1]; after 4 and 4.5 day administrations,approximately 9%
same,ROS compared to 0 dose/control (in words),[2]; primary human hepatocytes,decrease ROS levels significantly; also recorded: reduced ROS
